From patent publication US10227350B2 (Gilead Sciences, Inc., priority 2016, dated 2019)

Molecular target: PI3Kβ (Homo sapiens (Human), UniProt P42338)
Assay: TR-FRET enzymatic activity assay, PI3Kβ
Type: biochemical
Details: 2× Km ATP, 2 μM PIP2, 30 minutes at 25° C., read-out: IC50-PIP-Beta
Protocol: The compounds of formula (I) were characterized for their enzymatic activity against the PI3K isoforms. The activities were measured using a time-resolved fluorescence resonance energy transfer (TR-FRET) assay. TR-FRET monitored the formation of 3,4,5-inositol triphosphate molecule that competed with fluorescently labeled PIPS for binding to the GRP-1 pleckstrin homology domain protein.
Class I PI3K isoforms were expressed and purified as heterodimeric recombinant proteins. All assay reagents and buffers for the TR-FRET assay were purchased from Millipore. […] The compounds were added to the assay solution and incubated for 30 minutes at 25° C.

Sequence of PI3Kβ (P42338 whole entry): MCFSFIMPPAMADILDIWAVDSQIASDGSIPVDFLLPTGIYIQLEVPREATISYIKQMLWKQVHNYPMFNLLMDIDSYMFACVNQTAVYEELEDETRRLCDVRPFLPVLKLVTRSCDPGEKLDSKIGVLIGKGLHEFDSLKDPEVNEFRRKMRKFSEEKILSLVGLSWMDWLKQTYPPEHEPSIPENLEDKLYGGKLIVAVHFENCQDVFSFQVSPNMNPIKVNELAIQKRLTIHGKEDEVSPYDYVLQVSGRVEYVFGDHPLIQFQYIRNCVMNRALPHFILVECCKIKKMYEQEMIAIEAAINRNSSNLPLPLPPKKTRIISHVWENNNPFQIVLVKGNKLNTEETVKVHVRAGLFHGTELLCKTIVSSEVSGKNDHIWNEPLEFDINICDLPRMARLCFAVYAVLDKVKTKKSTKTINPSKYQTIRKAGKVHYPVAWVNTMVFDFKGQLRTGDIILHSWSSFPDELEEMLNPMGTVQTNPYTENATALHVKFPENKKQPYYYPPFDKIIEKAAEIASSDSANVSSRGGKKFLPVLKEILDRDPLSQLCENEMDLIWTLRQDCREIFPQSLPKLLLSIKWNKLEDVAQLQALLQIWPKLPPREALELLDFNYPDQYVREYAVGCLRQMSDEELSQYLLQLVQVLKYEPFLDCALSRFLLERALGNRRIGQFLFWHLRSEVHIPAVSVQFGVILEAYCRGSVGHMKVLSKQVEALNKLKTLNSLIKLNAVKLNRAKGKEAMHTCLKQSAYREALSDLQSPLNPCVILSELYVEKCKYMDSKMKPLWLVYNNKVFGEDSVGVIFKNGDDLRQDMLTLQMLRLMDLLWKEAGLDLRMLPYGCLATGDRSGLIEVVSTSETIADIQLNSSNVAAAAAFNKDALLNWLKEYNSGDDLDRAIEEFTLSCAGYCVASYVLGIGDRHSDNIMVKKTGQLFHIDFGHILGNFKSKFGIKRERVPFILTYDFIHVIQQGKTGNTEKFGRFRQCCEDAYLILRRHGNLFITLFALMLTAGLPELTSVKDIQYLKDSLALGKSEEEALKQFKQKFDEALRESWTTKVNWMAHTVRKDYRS
Sequence of PI3Kβ (P27986 whole entry partner): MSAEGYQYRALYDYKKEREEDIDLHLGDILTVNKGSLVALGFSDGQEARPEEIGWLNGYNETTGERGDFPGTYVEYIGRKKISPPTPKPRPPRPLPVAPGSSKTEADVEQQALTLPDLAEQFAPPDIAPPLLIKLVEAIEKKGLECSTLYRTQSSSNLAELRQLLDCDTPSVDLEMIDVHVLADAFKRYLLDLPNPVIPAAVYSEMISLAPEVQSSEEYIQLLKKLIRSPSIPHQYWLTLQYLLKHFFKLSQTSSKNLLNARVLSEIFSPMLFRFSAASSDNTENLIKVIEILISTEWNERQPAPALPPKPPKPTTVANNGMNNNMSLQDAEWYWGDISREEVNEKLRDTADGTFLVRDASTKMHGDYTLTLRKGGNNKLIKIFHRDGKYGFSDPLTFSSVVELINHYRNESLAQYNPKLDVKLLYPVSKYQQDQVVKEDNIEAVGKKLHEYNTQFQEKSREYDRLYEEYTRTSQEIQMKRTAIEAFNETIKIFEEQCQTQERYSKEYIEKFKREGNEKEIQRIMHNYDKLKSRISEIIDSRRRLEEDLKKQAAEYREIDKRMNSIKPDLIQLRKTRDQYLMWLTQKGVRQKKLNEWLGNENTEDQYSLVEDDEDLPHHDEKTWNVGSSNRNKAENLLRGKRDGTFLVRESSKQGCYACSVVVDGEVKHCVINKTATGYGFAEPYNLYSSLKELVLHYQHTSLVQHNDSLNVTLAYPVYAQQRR

Compound	IC50 [nM]
Cc1cnc2c(Cl)cccc2c1-n1c(C)nc2c(-c3nnc[nH]3)cc(-c3ccnc(N)c3F)cc21 [Example 89, 4-[3-(8-chloro-3-methylquinolin-4-yl)-2-methyl-7-(4H-1,2,4-triazol-3-yl)benzimidazol-5-yl]-3-fluoropyridin-2-amine]	3
Nc1nccc(-c2cc(-c3nnc[nH]3)c3ncn(-c4cc(N5CCNCC5)nc5ccccc45)c3c2)c1F [Example 162, 3-fluoro-4-(1-(2-(piperazin-1-yl)quinolin-4-yl)-4-(4H-1,2,4-triazol-3-yl)-1H-benzo[d]imidazol-6-yl)pyridin-2-amine]	10
Cc1nc2c(C(N)=O)cc(-c3ccnc(N)c3)cc2n1-c1ccnc2c(Cl)cccc12 [Example 23, 6-(2-aminopyridin-4-yl)-1-(8-chloroquinolin-4-yl)-2-methyl-1H-benzo[d]imidazole-4-carboxamide]	96
Cc1nc2c(-c3nnc[nH]3)cc(-c3ccnc(N)c3F)cc2n1-c1c(Cl)cnc2c(F)cccc12 [Example 92, 4-[3-(3-chloro-8-fluoroquinolin-4-yl)-2-methyl-7-(4H-1,2,4-triazol-3-yl)benzimidazol-5-yl]-3-fluoropyridin-2-amine]	51
CNc1cc(-c2cc(-c3nnc[nH]3)c3nc(C)n(-c4ccnc5c(F)ccc(F)c45)c3c2)c(F)cn1 [Example 82, 4-[3-(5,8-difluoroquinolin-4-yl)-2-methyl-7-(4H-1,2,4-triazol-3-yl)benzimidazol-5-yl]-5-fluoro-N-methylpyridin-2-amine]	120
CC(C)c1nc2c(-c3nnc[nH]3)cc(-c3ccnc(N)c3)cc2n1-c1ccnc2c(Cl)ccc(F)c12 [Example 67, 4-[3-(8-chloro-5-fluoroquinolin-4-yl)-2-propan-2-yl-7-(4H-1,2,4-triazol-3-yl)benzimidazol-5-yl]pyridin-2-amine]	8
Cc1nc2c(C(N)=O)cc(-c3ncnc4[nH]cnc34)cc2n1-c1ccnc2c(Cl)cccc12 [Example 20, 1-(8-chloroquinolin-4-yl)-2-methyl-6-(9H-purin-6-yl)benzimidazole-4-carboxamide]	1100
Cc1nc2c(-c3nnc[nH]3)cc(-c3cc(N)ncc3F)cc2n1-c1ccnc2c(F)ccc(F)c12 [Example 76, 4-[3-(5,8-difluoroquinolin-4-yl)-2-methyl-7-(4H-1,2,4-triazol-3-yl)benzimidazol-5-yl]-5-fluoropyridin-2-amine]	50
Cc1nc2c(-c3nnc[nH]3)cc(-c3ccnc(N)c3F)cc2n1-c1ccnc2c(Cl)ccc(Cl)c12 (single isomer, unassigned) [Example 119, 4-(1-(5,8-dichloroquinolin-4-yl)-2-methyl-4-(4H-1,2,4-triazol-3-yl)-1H-benzo[d]imidazol-6-yl)-3-fluoropyridin-2-amine]	87
CCCc1nc2c(-c3nnc(C)[nH]3)cc(-c3ccnc(N)c3)cc2n1-c1ccnc2c(Cl)ccc(F)c12 [Example 65, 4-[3-(8-chloro-5-fluoroquinolin-4-yl)-7-(5-methyl-4H-1,2,4-triazol-3-yl)-2-propylbenzimidazol-5-yl]pyridin-2-amine]	16
Cc1nc2c(-c3nnc[nH]3)cc(-c3ccnc(N)c3F)cc2n1-c1ccnc2cc(F)cc(F)c12 (single isomer, unassigned) [Example 117]	4
NC(=O)c1cc(-c2ccncc2)cc2c1ncn2-c1ccnc2c(Cl)cccc12 [Example 5, 1-(8-chloroquinolin-4-yl)-6-pyridin-4-ylbenzimidazole-4-carboxamide]	86
Cc1nc2c(-c3nnc[nH]3)cc(-c3ccnc(F)c3F)cc2n1-c1ccnc2c(F)ccc(F)c12 [Example 42, 4-[6-(2,3-difluoropyridin-4-yl)-2-methyl-4-(4H-1,2,4-triazol-3-yl)benzimidazol-1-yl]-5,8-difluoroquinoline]	10
Cc1nc2c(C(N)=O)cc(-c3cc(N)nc(N)n3)cc2n1-c1ccnc2c(Cl)cccc12 [Example 22, 1-(8-chloroquinolin-4-yl)-6-(2,6-diaminopyrimidin-4-yl)-2-methylbenzimidazole-4-carboxamide]	1100
NC(=O)c1cc(-c2ccncc2)cc2c1nc(C1COC1)n2-c1ccnc2c(Cl)cccc12 [Example 12, 1-(8-chloroquinolin-4-yl)-2-(oxetan-3-yl)-6-pyridin-4-ylbenzimidazole-4-carboxamide]	340
CNc1nccc(-c2cc(-c3nnc[nH]3)c3nc(C)n(-c4ccnc5c(F)ccc(F)c45)c3c2)c1F [Example 77, 4-[3-(5,8-difluoroquinolin-4-yl)-2-methyl-7-(4H-1,2,4-triazol-3-yl)benzimidazol-5-yl]-3-fluoro-N-methylpyridin-2-amine]	1400
Nc1cc(-c2cc(-c3nnc[nH]3)c3nc(CC4CC4)n(-c4ccnc5c(Cl)cccc45)c3c2)ccn1 [Example 73, 4-[3-(8-chloroquinolin-4-yl)-2-(cyclopropylmethyl)-7-(4H-1,2,4-triazol-3-yl)benzimidazol-5-yl]pyridin-2-amine]	8
Cc1cc(-n2c(C)nc3c(C(N)=O)cc(-c4ccncc4)cc32)c2cccc(Cl)c2n1 [Example 7, 1-(8-chloro-2-methylquinolin-4-yl)-2-methyl-6-pyridin-4-ylbenzimidazole-4-carboxamide]	16
Cc1cccc2nccc(-n3c(C)nc4c(C(N)=O)cc(-c5ccncc5)cc43)c12 [Example 9, 2-methyl-1-(5-methylquinolin-4-yl)-6-pyridin-4-ylbenzimidazole-4-carboxamide]	950
Cc1nc2c(-c3nnc[nH]3)cc(-c3ccnc(N)c3F)cc2n1-c1ccnc2c(F)ccc(Cl)c12 [Example 99, 4-[3-(5-chloro-8-fluoroquinolin-4-yl)-2-methyl-7-(4H-1,2,4-triazol-3-yl)benzimidazol-5-yl]-3-fluoropyridin-2-amine]	29
Cc1nc2c(-c3nnc[nH]3)cc(-c3ccncc3)cc2n1-c1ccnc2c(Cl)ccc(Cl)c12 [Example 29, 5,8-dichloro-4-[2-methyl-6-pyridin-4-yl-4-(4H-1,2,4-triazol-3-yl)benzimidazol-1-yl]quinoline]	6
Cc1nnc(-c2cc(-c3ccnc(N)c3)cc3c2nc(C)n3-c2ccnc3c(Cl)ccc(F)c23)[nH]1 [Example 50, 4-[3-(8-chloro-5-fluoroquinolin-4-yl)-2-methyl-7-(5-methyl-4H-1,2,4-triazol-3-yl)benzimidazol-5-yl]pyridin-2-amine]	17

Continued, values first:

IC50 [nM]	Compound
10	Cc1nc2c(-c3nnc[nH]3)cc(-c3ccnc(N)c3)cc2n1-c1ccnc2c(F)ccc(F)c12 [Example 48, 4-[3-(5,8-difluoroquinolin-4-yl)-2-methyl-7-(4H-1,2,4-triazol-3-yl)benzimidazol-5-yl]pyridin-2-amine]
7	Cc1nc2c(-c3nnc[nH]3)cc(-c3ccnc(N)c3F)cc2n1-c1ccnc2c(F)cccc12 [Example 86, 3-fluoro-4-[3-(8-fluoroquinolin-4-yl)-2-methyl-7-(4H-1,2,4-triazol-3-yl)benzimidazol-5-yl]pyridin-2-amine]
99	Cc1nc2c(-c3nnc[nH]3)cc(-c3ccncc3F)cc2n1-c1ccnc2c(Cl)cccc12 (single isomer, unassigned) [Example 138, 8-chloro-4-(6-(3-fluoropyridin-4-yl)-2-methyl-4-(4H-1,2,4-triazol-3-yl)-1H-benzo[d]imidazol-1-yl)quinoline]
7	Cc1nc2c(-c3nnc[nH]3)cc(-c3ccnc(C#N)c3)cc2n1-c1ccnc2c(Cl)ccc(F)c12 [Example 153, 4-(1-(8-chloro-5-fluoroquinolin-4-yl)-2-methyl-4-(4H-1,2,4-triazol-3-yl)-1H-benzo[d]imidazol-6-yl)picolinonitrile]
16	Cc1nc2c(-c3nnc[nH]3)cc(-c3ccnc(C#N)c3)cc2n1-c1ccnc2c(F)cccc12 [Example 148, 4-(1-(8-fluoroquinolin-4-yl)-2-methyl-4-(4H-1,2,4-triazol-3-yl)-1H-benzo[d]imidazol-6-yl)picolinonitrile]
6	Cc1cc(-n2c(C)nc3c(-c4nnc[nH]4)cc(-c4ccncc4)cc32)c2cccc(Cl)c2n1 [Example 32, 8-chloro-2-methyl-4-[2-methyl-6-pyridin-4-yl-4-(4H-1,2,4-triazol-3-yl)benzimidazol-1-yl]quinoline]
330	CCc1nc2c(-c3nnc[nH]3)cc(-c3ccnc(N)c3)cc2n1-c1ccnc2cc(F)ccc12 [Example 52, 4-[2-ethyl-3-(7-fluoroquinolin-4-yl)-7-(4H-1,2,4-triazol-3-yl)benzimidazol-5-yl]pyridin-2-amine]
80	Cc1nnc(-c2cc(-c3ccnc(C#N)c3)cc3c2nc(C)n3-c2ccnc3c(F)ccc(F)c23)[nH]1 [Example 151, 4-(1-(5,8-difluoroquinolin-4-yl)-2-methyl-4-(5-methyl-4H-1,2,4-triazol-3-yl)-1H-benzo[d]imidazol-6-yl)picolinonitrile]
540	Cc1nc2c(-c3nnc[nH]3)cc(-c3ccncc3)cc2n1-c1ccnc2c(F)ccc(F)c12 (single isomer, unassigned) [Example 140, 5,8-difluoro-4-(2-methyl-6-(pyridin-4-yl)-4-(4H-1,2,4-triazol-3-yl)-1H-benzo[d]imidazol-1-yl)quinoline]
5	Cc1nc2c(-c3nnc[nH]3)cc(-c3ccncc3F)cc2n1-c1ccnc2c(Cl)cccc12 [Example 39, 8-chloro-4-[6-(3-fluoropyridin-4-yl)-2-methyl-4-(4H-1,2,4-triazol-3-yl)benzimidazol-1-yl]quinoline]
8	Cc1nc2c(-c3nnc[nH]3)cc(-c3ccnc(C#N)c3)cc2n1-c1ccnc2c(F)ccc(Cl)c12 (single isomer, unassigned) [Example 123, 4-(1-(5-chloro-8-fluoroquinolin-4-yl)-2-methyl-4-(4H-1,2,4-triazol-3-yl)-1H-benzo[d]imidazol-6-yl)picolinonitrile]
